Test results as given in patent US20240360134A1, “PYRAZOLOPYRIMIDINES AND THEIR USES AS PDGFR INHIBITORS” (priority 2021, published 2024).

How the values were obtained:
[1] = molecular target: VEGFR2, unphosphorylated (Homo sapiens (Human), UniProt P35968); test: VEGFR ADP GLO assay; assay type: biochemical; conditions: 5 nM VEGFR2, 1.2 mM ATP, 1 mg/mL Srctide, 180 min
How it was run: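 Luminescent ADP detection after a 180-min room-temperature reaction of srctide plus ATP (2 mg/mL and 2.4 mM in 2× mix) in pH 7.5 HEPES buffer with DTT, Pluronic and ovalbumin. Compounds, 11 points from 10 µM, first pre-incubated 30 min with enzyme (2× mix 10 nM). IC50s fitted after scaling between DMSO and 1 µM TAK-593 controls.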

[2] = molecular target: Tb-labeled inactive PDGFRβ (Homo sapiens (Human), UniProt P09619); test: biochemical; assay type: binding; conditions: read-out: PDGFR Lantha IC50
Sequence of Tb-labeled inactive PDGFRβ (P09619 whole entry, looked up): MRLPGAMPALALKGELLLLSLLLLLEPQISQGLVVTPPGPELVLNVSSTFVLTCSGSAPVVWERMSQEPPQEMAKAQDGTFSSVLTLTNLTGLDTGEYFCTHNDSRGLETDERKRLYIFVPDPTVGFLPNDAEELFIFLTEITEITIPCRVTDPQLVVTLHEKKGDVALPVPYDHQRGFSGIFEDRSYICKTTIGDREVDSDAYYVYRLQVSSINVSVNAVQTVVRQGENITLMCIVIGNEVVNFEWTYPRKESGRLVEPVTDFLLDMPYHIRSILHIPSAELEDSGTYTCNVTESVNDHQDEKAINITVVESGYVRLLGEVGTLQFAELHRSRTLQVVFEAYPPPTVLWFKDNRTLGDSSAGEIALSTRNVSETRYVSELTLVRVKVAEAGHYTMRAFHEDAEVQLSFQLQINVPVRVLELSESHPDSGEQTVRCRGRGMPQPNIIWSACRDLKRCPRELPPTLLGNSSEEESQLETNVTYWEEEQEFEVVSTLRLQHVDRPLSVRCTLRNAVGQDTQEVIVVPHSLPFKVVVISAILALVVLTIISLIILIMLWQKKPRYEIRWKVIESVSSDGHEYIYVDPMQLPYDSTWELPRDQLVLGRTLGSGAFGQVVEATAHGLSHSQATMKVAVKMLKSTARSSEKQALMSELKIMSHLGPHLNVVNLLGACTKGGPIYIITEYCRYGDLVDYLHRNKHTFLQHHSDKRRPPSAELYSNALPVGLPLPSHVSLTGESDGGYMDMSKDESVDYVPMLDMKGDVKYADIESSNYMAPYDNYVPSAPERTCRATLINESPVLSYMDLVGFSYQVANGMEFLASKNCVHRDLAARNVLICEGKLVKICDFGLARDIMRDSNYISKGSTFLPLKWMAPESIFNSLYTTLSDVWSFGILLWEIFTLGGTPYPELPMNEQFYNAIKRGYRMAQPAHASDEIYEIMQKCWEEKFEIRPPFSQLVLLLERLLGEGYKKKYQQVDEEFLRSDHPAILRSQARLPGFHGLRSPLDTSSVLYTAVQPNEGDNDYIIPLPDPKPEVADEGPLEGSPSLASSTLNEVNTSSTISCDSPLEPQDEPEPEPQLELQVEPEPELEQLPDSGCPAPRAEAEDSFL

[3] = molecular target: His6-TEV-PDGFRβ (557-1016) (Homo sapiens (Human), UniProt P09619); test: PDGFRβ HTRF Assay; assay type: biochemical; conditions: 800 μM ATP, 0.5 μM TK-substrate biotin peptide, 30 min pre-incubation, 3 hours reaction; read-out: PDGFR HTRF IC50
Sequence of His6-TEV-PDGFRβ (557-1016) (P09619 whole entry, looked up): as above

[4] = molecular target: PDGFRβ (Rattus norvegicus (Rat), UniProt Q05030); test: PDGFRβ Cellular Assay (PDGFRb P-Y751 HTRF, PDGF-BB stimulated A10 cells); assay type: cell-based; conditions: A10 cells, 3 hours compound, 15 ng/mL PDGFbb for 10 minutes; read-out: PDGFR Cellular IC50
Sequence of PDGFRβ (Q05030 whole entry, looked up): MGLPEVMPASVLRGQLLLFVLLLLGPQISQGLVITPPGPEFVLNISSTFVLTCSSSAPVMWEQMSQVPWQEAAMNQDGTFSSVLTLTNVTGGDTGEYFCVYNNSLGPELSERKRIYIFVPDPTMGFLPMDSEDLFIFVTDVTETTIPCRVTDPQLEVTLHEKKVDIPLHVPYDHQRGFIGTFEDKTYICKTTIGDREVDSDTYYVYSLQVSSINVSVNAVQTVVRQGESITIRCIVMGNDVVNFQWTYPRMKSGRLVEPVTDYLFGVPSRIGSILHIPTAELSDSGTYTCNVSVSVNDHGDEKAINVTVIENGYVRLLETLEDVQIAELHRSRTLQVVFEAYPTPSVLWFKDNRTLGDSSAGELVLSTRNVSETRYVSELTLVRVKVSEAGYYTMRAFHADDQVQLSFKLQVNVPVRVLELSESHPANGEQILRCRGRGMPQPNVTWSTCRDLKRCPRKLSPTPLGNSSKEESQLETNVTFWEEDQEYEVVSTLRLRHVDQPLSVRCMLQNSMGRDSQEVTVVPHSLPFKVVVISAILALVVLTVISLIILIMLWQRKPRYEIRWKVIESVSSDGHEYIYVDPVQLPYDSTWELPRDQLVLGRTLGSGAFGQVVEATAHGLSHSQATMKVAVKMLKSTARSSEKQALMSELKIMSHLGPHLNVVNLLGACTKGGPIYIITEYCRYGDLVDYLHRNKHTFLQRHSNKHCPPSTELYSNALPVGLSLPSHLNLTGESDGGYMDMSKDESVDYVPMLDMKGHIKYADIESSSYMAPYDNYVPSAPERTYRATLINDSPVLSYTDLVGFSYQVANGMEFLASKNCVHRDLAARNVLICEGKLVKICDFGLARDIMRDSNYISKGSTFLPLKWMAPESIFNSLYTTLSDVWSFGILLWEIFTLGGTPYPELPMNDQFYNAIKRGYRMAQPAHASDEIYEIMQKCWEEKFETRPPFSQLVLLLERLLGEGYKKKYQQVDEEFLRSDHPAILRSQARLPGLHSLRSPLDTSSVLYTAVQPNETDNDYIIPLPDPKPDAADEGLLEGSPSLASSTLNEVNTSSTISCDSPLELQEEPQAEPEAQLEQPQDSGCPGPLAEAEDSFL
How it was run: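 Rat A10 cells plated overnight were treated with compound for 3 h, stimulated with rat PDGF-BB (working stock 100 ng/mL in 10% FBS medium) for 10 min, then lysed.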

Sequence of VEGFR2, unphosphorylated (P35968 whole entry, looked up): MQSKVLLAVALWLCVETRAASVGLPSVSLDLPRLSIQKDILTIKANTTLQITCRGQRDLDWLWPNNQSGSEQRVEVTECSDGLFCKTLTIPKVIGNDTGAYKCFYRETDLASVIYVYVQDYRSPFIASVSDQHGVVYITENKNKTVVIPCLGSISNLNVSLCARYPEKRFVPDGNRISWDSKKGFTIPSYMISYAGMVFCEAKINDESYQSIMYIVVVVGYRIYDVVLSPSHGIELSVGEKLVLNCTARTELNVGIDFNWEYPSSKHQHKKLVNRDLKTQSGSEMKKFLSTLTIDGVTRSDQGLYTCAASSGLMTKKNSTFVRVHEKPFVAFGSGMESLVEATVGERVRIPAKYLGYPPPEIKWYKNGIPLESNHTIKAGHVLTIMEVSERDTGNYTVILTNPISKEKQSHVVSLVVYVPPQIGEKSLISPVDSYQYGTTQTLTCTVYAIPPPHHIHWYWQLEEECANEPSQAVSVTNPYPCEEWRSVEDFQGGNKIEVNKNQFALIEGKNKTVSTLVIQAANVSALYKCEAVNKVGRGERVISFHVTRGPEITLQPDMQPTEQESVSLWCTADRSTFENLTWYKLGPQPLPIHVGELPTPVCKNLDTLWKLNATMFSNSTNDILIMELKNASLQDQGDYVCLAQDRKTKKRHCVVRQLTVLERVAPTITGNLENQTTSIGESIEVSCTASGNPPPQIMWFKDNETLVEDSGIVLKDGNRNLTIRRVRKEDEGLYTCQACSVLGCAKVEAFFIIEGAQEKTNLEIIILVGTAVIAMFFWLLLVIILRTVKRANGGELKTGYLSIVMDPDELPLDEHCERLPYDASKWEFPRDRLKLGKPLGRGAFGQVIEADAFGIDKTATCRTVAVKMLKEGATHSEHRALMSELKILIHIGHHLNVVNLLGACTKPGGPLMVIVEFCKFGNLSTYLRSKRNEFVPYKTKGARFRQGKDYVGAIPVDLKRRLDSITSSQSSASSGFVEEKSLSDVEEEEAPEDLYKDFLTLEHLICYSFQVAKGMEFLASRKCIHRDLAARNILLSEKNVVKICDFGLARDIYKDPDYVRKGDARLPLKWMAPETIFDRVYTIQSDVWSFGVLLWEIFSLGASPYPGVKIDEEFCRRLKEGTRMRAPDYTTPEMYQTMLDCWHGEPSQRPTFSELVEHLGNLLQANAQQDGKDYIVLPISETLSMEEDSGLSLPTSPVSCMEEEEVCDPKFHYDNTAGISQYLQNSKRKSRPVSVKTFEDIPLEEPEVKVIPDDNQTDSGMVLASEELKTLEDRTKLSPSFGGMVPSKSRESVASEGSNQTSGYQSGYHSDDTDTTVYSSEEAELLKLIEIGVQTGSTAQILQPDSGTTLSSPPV

In the case of `Cc1ncc(C(=O)NCCN2CCCOCC2)cc1Nc1nn(C)c2nc(Nc3cnn(C)c3)ncc12` [Example 17, N-(2-(1,4-oxazepan-4-yl)ethyl)-6-methyl-5-((1-methyl-6-((1-methyl-1H-pyrazol-4-yl)amino)-1H-pyrazolo[3,4-d]pyrimidin-3-yl)amino)nicotinamide], the IC50 [1] is reported as roughly 6990 nM, the IC50 [2] is reported as 2.9 nM and the IC50 [3] is reported as 0.48 nM. It also gave an IC50 [4] of 68.3 nM.

`CO[C@H]1CCN(CC(=O)Nc2cnc(C)c(Nc3nn(C)c4nc(Nc5cnn(C)c5)ncc34)c2)C1` [Example 136, (S)-2-(3-methoxypyrrolidin-1-yl)-N-(6-methyl-5-((1-methyl-6-((1-methyl-1H-pyrazol-4-yl)amino)-1H-pyrazolo[3,4-d]pyrimidin-3-yl)amino)pyridin-3-yl)acetamide] gave an IC50 [1] greater than 7500 nM, an IC50 [2] of 3.7 nM and an IC50 [3] of 0.52 nM. For the same compound, the IC50 [4] was 12.2 nM.

Work on `Cc1ncc(C(=O)NCCN2CCCC[C@@H]2C)cc1Nc1nn(C)c2nc(Nc3cncnc3)ncc12` [Example 5, (S)-6-methyl-5-((1-methyl-6-(pyrimidin-5-ylamino)-1H-pyrazolo[3,4-d]pyrimidin-3-yl)amino)-N-(2-(2-methylpiperidin-1-yl)ethyl)nicotinamide] yielded an IC50 [1] of 2070 nM, an IC50 [2] of 5.3 nM and an IC50 [3] of 0.65 nM. It also gave an IC50 [4] of 67.5 nM.

Compound `Cc1ncc(C(=O)NCCN2CCCC2(C)C)cc1Nc1nn(C)c2nc(Nc3ccnc(N4CCN(CCO)CC4)c3)ncc12` [Example 103, N-(2-(2,2-dimethylpyrrolidin-1-yl)ethyl)-5-((6-((2-(4-(2-hydroxyethyl)piperazin-1-yl)pyridin-4-yl)amino)-1-methyl-1H-pyrazolo[3,4-d]pyrimidin-3-yl)amino)-6-methylnicotinamide] has an IC50 [1] greater than 7500 nM, an IC50 [2] of 4.8 nM and an IC50 [3] of 0.55 nM. For the same compound, the IC50 [4] was 443 nM.

`Cc1ncc(NC(=O)CN2CCCC2(C)C)cc1Nc1nn(C)c2nc(Nc3cnn(C)c3)ncc12` [Example 70, 2-(2,2-dimethylpyrrolidin-1-yl)-N-(6-methyl-5-((1-methyl-6-((1-methyl-1H-pyrazol-4-yl)amino)-1H-pyrazolo[3,4-d]pyrimidin-3-yl)amino)pyridin-3-yl)acetamide] gave an IC50 [1] of 6170 nM, an IC50 [2] of 1.8 nM and an IC50 [3] of 0.2 nM. It also gave an IC50 [4] of 0.9 nM.

`Cc1ncc(C(=O)NCCN2CCCCC23CC3)cc1Nc1nn(C)c2nc(Nc3cncnc3)ncc12` [Example 56, N-(2-(4-azaspiro[2.5]octan-4-yl)ethyl)-6-methyl-5-((1-methyl-6-(pyrimidin-5-ylamino)-1H-pyrazolo[3,4-d]pyrimidin-3-yl)amino)nicotinamide] gave an IC50 [1] greater than 7500 nM, an IC50 [2] of 3 nM and an IC50 [3] of 0.54 nM. The IC50 [4] was 9.7 nM.

In the case of “2-(3,3-dimethylazetidin-1-yl)-N-(6-methyl-5-((1-methyl-6-((1-methyl-1H-imidazol-4-yl)amino)-1H-pyrazolo[3,4-d]pyrimidin-3-yl)amino)pyridin-3-yl)acetamide [Example 141]”, the IC50 [1] is reported as greater than 7500 nM, the IC50 [2] is reported as 12.5 nM and the IC50 [3] is reported as 1.4 nM. The IC50 [4] was 9.4 nM.

In the case of `Cc1ncc(C(=O)NCCN(CCO)C2CCCC2)cc1Nc1nn(C)c2nc(Nc3cnn(C)c3)ncc12` [Example 97, N-(2-(cyclopentyl(2-hydroxyethyl)amino)ethyl)-6-methyl-5-((1-methyl-6-((1-methyl-1H-pyrazol-4-yl)amino)-1H-pyrazolo[3,4-d]pyrimidin-3-yl)amino)nicotinamide], the IC50 [1] is reported as greater than 7500 nM, the IC50 [2] is reported as 2.4 nM and the IC50 [3] is reported as 0.46 nM. For the same compound, the IC50 [4] was 101 nM.

Work on `C[C@H]1CCCN1CCNC(=O)c1ccc(F)c(Nc2nn(C)c3nc(Nc4cnn(C)c4)ncc23)c1` [Example 119, (S)-4-fluoro-3-((1-methyl-6-((1-methyl-1H-pyrazol-4-yl)amino)-1H-pyrazolo[3,4-d]pyrimidin-3-yl)amino)-N-(2-(2-methylpyrrolidin-1-yl)ethyl)benzamide] yielded an IC50 [1] of 6600 nM, an IC50 [2] of 1.4 nM and an IC50 [3] of 0.13 nM. It also gave an IC50 [4] of 5.8 nM.

Work on `COCCn1cc(Nc2ncc3c(Nc4cc(NC(=O)CN5CCC(C)(C)C5)cnc4C)nn(C)c3n2)cn1` [Example 129, 2-(3,3-dimethylpyrrolidin-1-yl)-N-(5-((6-((1-(2-methoxyethyl)-1H-pyrazol-4-yl)amino)-1-methyl-1H-pyrazolo[3,4-d]pyrimidin-3-yl)amino)-6-methylpyridin-3-yl)acetamide] yielded an IC50 [1] of 1420 nM, an IC50 [2] of 1.3 nM and an IC50 [3] of 0.27 nM. For the same compound, the IC50 [4] was 2.4 nM.

`Cc1ncc(C(=O)NCCN2CCCC2(C)C)cc1Nc1nn(C)c2nc(Nc3cncc(CC(=O)O)c3)ncc12` [Example 33, 2-(5-((3-((5-((2-(2,2-dimethylpyrrolidin-1-yl)ethyl)carbamoyl)-2-methylpyridin-3-yl)amino)-1-methyl-1H-pyrazolo[3,4-d]pyrimidin-6-yl)amino)pyridin-3-yl)acetic acid] gave an IC50 [1] of 2190 nM, an IC50 [2] of 8.8 nM and an IC50 [3] of 1.21 nM. It also gave an IC50 [4] greater than 3000 nM.

`COCCn1cc(Nc2ncc3c(Nc4cc(NC(=O)CN5CCC[C@@H]5C)cnc4C)nn(C)c3n2)cn1` [Example 128, (S)—N-(5-((6-((1-(2-methoxyethyl)-1H-pyrazol-4-yl)amino)-1-methyl-1H-pyrazolo[3,4-d]pyrimidin-3-yl)amino)-6-methylpyridin-3-yl)-2-(2-methylpyrrolidin-1-yl)acetamide] showed an IC50 [1] greater than 7500 nM, an IC50 [2] of 3.6 nM and an IC50 [3] of 0.47 nM. It also gave an IC50 [4] of 4.5 nM.

Compound `Cc1ncc(C(=O)NCCN2CCCC2(C)C)cc1Nc1nn(C)c2nc(Nc3ccnc(N4CCC(CCO)CC4)c3)ncc12` [Example 111, N-(2-(2,2-dimethylpyrrolidin-1-yl)ethyl)-5-((6-((2-(4-(2-hydroxyethyl)piperidin-1-yl)pyridin-4-yl)amino)-1-methyl-1H-pyrazolo[3,4-d]pyrimidin-3-yl)amino)-6-methylnicotinamide] has an IC50 [1] greater than 7500 nM, an IC50 [2] of 5.1 nM and an IC50 [3] of 0.51 nM. The IC50 [4] was 106 nM.

`Cc1ncc(C(=O)NCCN2CCC3(CCC3)CC2)cc1Nc1nn(C)c2nc(Nc3cncnc3)ncc12` [Example 7, N-(2-(7-azaspiro[3.5]nonan-7-yl)ethyl)-6-methyl-5-((1-methyl-6-(pyrimidin-5-ylamino)-1H-pyrazolo[3,4-d]pyrimidin-3-yl)amino)nicotinamide] was tested, and the IC50 [1] was greater than 7500 nM, the IC50 [2] was 6.7 nM and the IC50 [3] was 0.48 nM. For the same compound, the IC50 [4] was 32.7 nM.

For `Cc1ncc(C(=O)NCCN2[C@H](C)CCC[C@@H]2C)cc1Nc1nn(C)c2nc(Nc3cncnc3)ncc12` [Example 14, N-(2-((2S,6R)-2,6-dimethylpiperidin-1-yl)ethyl)-6-methyl-5-((1-methyl-6-(pyrimidin-5-ylamino)-1H-pyrazolo[3,4-d]pyrimidin-3-yl)amino)nicotinamide], the IC50 [1] was roughly 7130 nM, the IC50 [2] was 8.5 nM and the IC50 [3] was 0.89 nM. The IC50 [4] was 109 nM.

Work on `COC1CCN(CC(=O)Nc2cnc(C)c(Nc3nn(C)c4nc(Nc5cnn(C)c5)ncc34)c2)CC1` [Example 134, 2-(4-methoxypiperidin-1-yl)-N-(6-methyl-5-((1-methyl-6-((1-methyl-1H-pyrazol-4-yl)amino)-1H-pyrazolo[3,4-d]pyrimidin-3-yl)amino)pyridin-3-yl)acetamide] yielded an IC50 [1] greater than 7500 nM, an IC50 [2] of 3.1 nM and an IC50 [3] of 0.43 nM. For the same compound, the IC50 [4] was 7.4 nM.

For `Cc1ncc(C(=O)NCCN(C)C2CCCC2)cc1Nc1nn(C)c2nc(Nc3cncnc3)ncc12` [Example 9, N-(2-(cyclopentyl(methyl)amino)ethyl)-6-methyl-5-((1-methyl-6-(pyrimidin-5-ylamino)-1H-pyrazolo[3,4-d]pyrimidin-3-yl)amino)nicotinamide], the IC50 [1] was greater than 7500 nM, the IC50 [2] was 7 nM and the IC50 [3] was 0.59 nM. For the same compound, the IC50 [4] was 36.5 nM.

Compound `Cc1ncc(C(=O)NCCN2CCCC2(C)C)cc1Nc1nn(C)c2nc(Nc3ccc(=O)n(C)n3)ncc12` [Example 31, N-(2-(2,2-dimethylpyrrolidin-1-yl)ethyl)-6-methyl-5-((1-methyl-6-((1-methyl-6-oxo-1,6-dihydropyridazin-3-yl)amino)-1H-pyrazolo[3,4-d]pyrimidin-3-yl)amino)nicotinamide] has an IC50 [1] greater than 7500 nM, an IC50 [2] of 60.3 nM and an IC50 [3] of 2.5 nM. The IC50 [4] was 390 nM.

Work on `Cc1cc(Nc2ncc3c(Nc4cc(C(=O)NCCN5CCC[C@@H]5C)cnc4C)nn(C)c3n2)n(C)n1` [Example 158, (S)-5-((6-((1,3-dimethyl-1H-pyrazol-5-yl)amino)-1-methyl-1H-pyrazolo[3,4-d]pyrimidin-3-yl)amino)-6-methyl-N-(2-(2-methylpyrrolidin-1-yl)ethyl)nicotinamide] yielded an IC50 [1] greater than 7500 nM, an IC50 [2] of 22.3 nM and an IC50 [3] of 2.63 nM. For the same compound, the IC50 [4] was 147 nM.

With `COCCn1cc(Nc2ncc3c(Nc4cc(NC(=O)CN5CCCC56CCC6)cnc4C)nn(C)c3n2)cn1` [Example 132, N-(5-((6-((1-(2-methoxyethyl)-1H-pyrazol-4-yl)amino)-1-methyl-1H-pyrazolo[3,4-d]pyrimidin-3-yl)amino)-6-methylpyridin-3-yl)-2-(5-azaspiro[3.4]octan-5-yl)acetamide] the IC50 [1] was greater than 7500 nM, the IC50 [2] was 2 nM and the IC50 [3] was 0.35 nM. For the same compound, the IC50 [4] was 3.2 nM.

For `Cc1ncc(C(=O)NCCN2CCC3(CC3)C2)cc1Nc1nn(C)c2nc(Nc3cncnc3)ncc12` [Example 58, N-(2-(5-azaspiro[2.4]heptan-5-yl)ethyl)-6-methyl-5-((1-methyl-6-(pyrimidin-5-ylamino)-1H-pyrazolo[3,4-d]pyrimidin-3-yl)amino)nicotinamide], the IC50 [1] was greater than 7500 nM, the IC50 [2] was 4.8 nM and the IC50 [3] was 0.36 nM. The IC50 [4] was 101 nM.
